In assay [1] the target is T1, sigma-1 receptor (sig1R) (Mus musculus, UniProt O55242).
T1 construct: gene Sigmar1; mouse brain cryosections, contralateral striatum
Nature of the assay: homologous radioligand displacement by autoradiography; PET in sig1R-knockout vs control mice. (In general: Loss of bound radioactivity is the signal in a displacement assay; it reports binding, not function.)

In assay [2] the target is T2, sigma-1 receptor (sig1R) (Homo sapiens, UniProt Q99720).
T2 construct: gene SIGMAR1; U87-MG cells
T2 sequence (Q99720 whole entry): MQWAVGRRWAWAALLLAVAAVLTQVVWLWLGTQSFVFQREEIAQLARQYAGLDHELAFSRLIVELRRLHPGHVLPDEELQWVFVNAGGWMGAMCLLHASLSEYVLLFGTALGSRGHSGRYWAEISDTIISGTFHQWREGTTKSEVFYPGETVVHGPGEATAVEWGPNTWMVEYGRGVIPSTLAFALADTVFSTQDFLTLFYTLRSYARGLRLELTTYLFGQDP
Nature of the assay: radioligand binding and displacement of (+)-[3H]pentazocine in U87-MG cells; autoradiography of tumour.

In general, Kd refers to the concentration at which binding is half-saturated. A lower Kd goes with tighter binding.

T1 sequence (O55242 whole entry): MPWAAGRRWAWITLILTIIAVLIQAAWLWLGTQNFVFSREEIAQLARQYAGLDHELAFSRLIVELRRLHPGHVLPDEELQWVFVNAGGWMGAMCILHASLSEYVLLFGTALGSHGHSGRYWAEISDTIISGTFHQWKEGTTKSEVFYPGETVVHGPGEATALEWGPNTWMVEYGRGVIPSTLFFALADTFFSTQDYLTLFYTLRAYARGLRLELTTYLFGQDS

Regarding `FCC[C@@H]1OC2(CCN(Cc3ccccc3)CC2)c2ccccc21` [(S)-(−)-[^18F]fluspidine], the Kd is 17 ± 4.8 nM at sigma-1 receptor (sig1R) [1] and 16.7 nM on sigma-1 receptor (sig1R) [2].
